These results are taken from patent publication US8324245B2, “Quinoline derivative and quinazoline derivative inhibiting self-phosphorylation of hepatocytus proliferator receptor, and medicinal composition containing the same” (Kyowa Hakko Kirin Co., Ltd., priority 2001, dated 2012).

Structures are written as SMILES.

Assay [1] has as its target T1, met (HGF receptor) in human gastric cancer cells MKN45 (Homo sapiens, UniProt P08581).
T1 construct: endogenous in cells; host or cells: MKN45 human gastric cancer cells
As to the kind of experiment: Inhibitory activity against met-autophosphorylation using ELISA method (2), MKN45 cells, HGF-independent. Type of assay: cell-based. In a few lines: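 MKN45 cells, 3×10^4 per well in RPMI with 0.1% FCS overnight, were exposed to compound in DMSO for 1 h at 37 °C without HGF. Lysates were captured on anti-phosphotyrosine (PY20) plates, Met detected with anti-Met and peroxidase secondary antibody, absorbance at 450 nm.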
On the technique in general: In an ELISA, binding on a coated surface is turned into a signal by an enzyme label.

Assay [2] relates to Human gastric cancer cells (MKN 45). Description: Tumor growth inhibitory activity against various human tumor cells in nude mice: MKN 45. It counts as in vivo. The conditions noted are these: Mus musculus, MKN-45, po, 120 h, MKN45, Oral, 5 days; read-out: TGIR. Here is the method:
(§1) Human gastric cancer cells (MKN 45) (obtained from RIKEN), human brain tumor cells (U87MG) (obtained from ATCC), human pancreatic cancer cells (KP4) (obtained from RIKEN), human pancreatic cancer cells (SUIT-2) (obtained from National Kyushu Cancer Center), and human signet-ring type gastric cancer cells (NUGC-4) (obtained from RIKEN), or human lung cancer cells (LC6) (obtained from Central Laboratories for Experimental Animals) were transplanted into nude mice. […] The test compound suspended in 0.5% methylcellulose was orally administered once or twice a day for 5 days. Only 0.5% methylcellulose was administered to the control group in the manner as in the test groups. Alternatively, the test compound dissolved in physiological saline (with a 1 N aqueous hydrochloric acid solution added thereto) was intraveneously injected once a day for 5 days, and only physiological saline (with a 1 N aqueous hydrochloric acid solution added thereto) was administered to the control group in the same manner as in the test groups. The tumor growth inhibition rate (TGIR) was calculated as follows: The tumor growth inhibition rate (TGIR)=(1−TX/CX)×100 wherein CX represents the relative tumor volume at the 5th day for the control group when the tumor volume at the day of the start of the administration was presumed to be 1; and TX represents the relative tumor volume for test compound administration groups.

Assay [3] concerns Human brain tumor cells (U87MG). Description: Tumor growth inhibitory activity against various human tumor cells in nude mice: U87MG. Type of assay: in vivo. The following applies: Oral, 30 × 2 mg/kg × number of times, 5 days. The protocol: as §1
Assay [4] has as its system human lung cancer cells (LC6). As to the kind of experiment: Tumor growth inhibitory activity against various human tumor cells in nude mice: LC6. Type of assay: in vivo. The conditions noted are these: LC6, Oral, 30 × 2 mg/kg × number of times, 5 days. Here is the method:
as §1

In assay [5] the target is T2, met (HGF receptor) in human epidermal cancer cells A431 (Homo sapiens, UniProt P08581).
T2 construct: endogenous in cells; host or cells: A431 human epidermal cancer cells
T2 sequence (P08581 25-1390): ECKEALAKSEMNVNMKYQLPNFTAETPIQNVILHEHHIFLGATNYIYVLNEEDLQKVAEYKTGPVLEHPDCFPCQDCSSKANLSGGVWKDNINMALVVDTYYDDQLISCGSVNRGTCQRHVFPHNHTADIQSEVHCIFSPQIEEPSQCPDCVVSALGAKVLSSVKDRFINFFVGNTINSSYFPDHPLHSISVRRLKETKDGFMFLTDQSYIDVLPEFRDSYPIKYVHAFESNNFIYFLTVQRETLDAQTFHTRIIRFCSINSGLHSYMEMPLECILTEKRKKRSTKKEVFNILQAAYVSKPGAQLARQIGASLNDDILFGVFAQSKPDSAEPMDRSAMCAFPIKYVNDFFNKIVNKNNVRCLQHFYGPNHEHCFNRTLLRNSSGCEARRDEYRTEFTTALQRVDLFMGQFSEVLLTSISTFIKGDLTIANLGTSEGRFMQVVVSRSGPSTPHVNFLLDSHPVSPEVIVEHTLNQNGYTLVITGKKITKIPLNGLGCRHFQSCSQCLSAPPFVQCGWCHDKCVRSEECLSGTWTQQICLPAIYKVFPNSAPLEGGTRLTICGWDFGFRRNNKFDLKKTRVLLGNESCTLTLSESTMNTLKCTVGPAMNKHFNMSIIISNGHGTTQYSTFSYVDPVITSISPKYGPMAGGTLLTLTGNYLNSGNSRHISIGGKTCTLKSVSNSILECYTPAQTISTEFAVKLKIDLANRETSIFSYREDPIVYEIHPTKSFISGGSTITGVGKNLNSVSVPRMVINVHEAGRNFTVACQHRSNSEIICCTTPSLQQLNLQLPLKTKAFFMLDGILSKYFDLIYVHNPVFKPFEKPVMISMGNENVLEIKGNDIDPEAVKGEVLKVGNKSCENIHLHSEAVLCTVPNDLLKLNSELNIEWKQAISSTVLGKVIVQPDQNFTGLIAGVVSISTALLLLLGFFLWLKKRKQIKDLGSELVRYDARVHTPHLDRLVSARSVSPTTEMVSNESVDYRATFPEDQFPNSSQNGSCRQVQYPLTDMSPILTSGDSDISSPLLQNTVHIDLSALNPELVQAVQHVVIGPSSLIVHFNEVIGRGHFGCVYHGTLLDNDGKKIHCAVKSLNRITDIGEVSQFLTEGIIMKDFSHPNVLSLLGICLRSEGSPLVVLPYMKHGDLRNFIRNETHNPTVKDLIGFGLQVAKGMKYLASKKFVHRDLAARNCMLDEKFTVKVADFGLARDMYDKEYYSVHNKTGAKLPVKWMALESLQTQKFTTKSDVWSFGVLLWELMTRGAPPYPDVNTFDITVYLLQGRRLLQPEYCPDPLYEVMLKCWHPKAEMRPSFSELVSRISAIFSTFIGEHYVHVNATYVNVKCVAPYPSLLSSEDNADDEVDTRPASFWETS
Description: Inhibitory activity against met-autophosphorylation using ELISA method (1), HGF-stimulated A431 cells. It counts as cell-based. The following applies: HGF 50 ng/ml stimulation, read-out: IC50 (concentration necessary for inhibiting 50% of met phosphorylation). The protocol:
Human epidermal cancer cells A431 were cultured in an RPMI 1640 medium containing 10% fetal calf serum (purchased from GIBCO BRL) within a 5% carbon dioxide incubator until 50 to 90% confluent. Cells were cultured with RPMI medium containing 0.1% fetal calf serum in 96-well flat-bottom plate in an amount of 3×10^4 per well, and were incubated at 37° C. overnight. The medium was then replaced by a fresh RPMI medium containing 0.1% fetal calf serum. A solution of the test compound in dimethyl sulfoxide was added to each well, and the cells were incubated at 37° C. for additional one hr. A human recombinant hepatocyte growth factor (hereinafter abbreviated to “HGF”) was added to a final concentration of 50 ng/ml, and the stimulation of cells was carried out at 37° C. for 5 min. The medium was removed, the cells were washed with phosphate buffered saline (pH 7.4), and 50 μl of lysis buffer (20 mM HEPES (pH 7.4), 150 mM NaCl, 0.2% Triton X-100, 10% glycerol, 5 mM sodium orthovanadylate, 5 mM disodium ethylenediaminetetraacetate, and 2 mM Na4P2O7) was then added thereto. […]
Separately, phosphate buffered saline (50 μl, pH 7.4) containing 5 μg/ml of anti-phospho-tyrosine antibody (PY20; purchased from Transduction Laboratories) was added to a microplate for ELISA (Maxisorp; purchased from NUNC), followed by gentle agitation at 4° C. overnight to coat the surface of the wells with the antibody. […] After washing, the whole quantity of the cell extract was transferred to the wells, and the plate was then allowed to incubate at 4° C. overnight. […] After a suitable level of color development, a reaction termination solution was added to stop the reaction, and the absorbance at 450 nm was measured with a microplate reader. The met-phosphorylation inhibitory activity for each well was determined by presuming the absorbance with the addition of HGF and the vehicle to compounds to be 0% met-phosphorylation inhibitory activity and the absorbance with the addition of the vehicle to compounds and without HGF to be 100% met phosphorylation inhibitory activity. […]

The test system of assay [6] is Human gastric cancer cells (MKN 45). As to the kind of experiment: Tumor growth inhibitory activity against human gastric cancer cells (MKN 45) in nude mice. Type of assay: in vivo. The following applies: oral, twice a day for 5 days. The protocol:
Human gastric cancer cells (MKN 45) were transplanted into nude mice. […] The test compound suspended in 0.5% methylcellulose was orally administered twice a day for 5 days.
(§2) Only 0.5% methylcellulose was administered to the control group in the manner as in the test groups. The tumor growth inhibition rate (TGIR) was calculated as follows: The tumor growth inhibition rate (TGIR)=(1−TX/CX)×100 wherein CX represents the relative tumor volume at day X for the control group when the tumor volume at the day of the start of the administration was presumed to be 1; and TX represents the relative tumor volume for test compound administration groups.

Assay [7] has as its system Human brain tumor cells (U87MG). As to the kind of experiment: Tumor growth inhibitory activity against human brain tumor cells (U87MG) in nude mice. It counts as in vivo. The following applies: oral, twice a day for 5 days. Here is the method: Human brain tumor cells (U87MG) were transplanted into nude mice. […] The test compound suspended in 0.5% methylcellulose was orally administered twice a day for 5 days.
as §2

Assay [8] deals with human pancreatic cancer cells (KP4). Description: Tumor growth inhibitory activity against various human tumor cells in nude mice: KP4. Type of assay: in vivo. The conditions noted are these: KP-4, Oral, 30 × 2 mg/kg × number of times, 5 days. The protocol:
as §1

Assay [9] has as its system human signet-ring type gastric cancer cells (NUGC-4). As to the kind of experiment: Tumor growth inhibitory activity against various human tumor cells in nude mice: NUGC-4. It counts as in vivo. The following applies: NUGC-4, Oral, 30 × 2 mg/kg × number of times, 5 days. Here is the method:
as §1, with “Alternatively, the test compound dissolved in physiological saline (with a 1 N aqueous hydrochloric acid solution added thereto) was intraveneously injected once a day for 5 days, and only physiological saline (with a 1 N aqueous hydrochloric acid solution added thereto) was administered to the control group in the same manner as in the test groups.” left out

T1 sequence (P08581 25-1390): as above

As for `COc1cc2c(Oc3ccc(NC(=O)NC(=O)Cc4ccc(F)cc4)c(F)c3)ccnc2cc1OCCCN1CCOCC1` [Example 286, 1-{2-Fluoro-4-[6-methoxy-7-(3-morpholin-4-yl-propoxy)-quinolin-4-yloxy]-phenyl}-3-[2-(4-fluoro-phenyl)-acetyl]-urea], in [1], the IC50 amounted to 29.3 nM. The inhibition in vivo at 30 mg/kg in assay [2] was determined as 64%. Also, the TGIR in assay [3] was found to be 66%; in [4], 37%.
Take `COc1cc2c(Oc3ccc(NC(=S)NC(=O)Cc4ccccc4Cl)cc3F)ccnc2cc1OCCCN1CCOCC1` [Example 285, 1-[2-(2-Chloro-phenyl)-acetyl]-3-{3-fluoro-4-[6-methoxy-7-(3-morpholin-4-yl-propoxy)-quinolin-4-yloxy]-phenyl}-thiourea]: the IC50 in assay [1] was found to be 75.3 nM. Further, the inhibition in vivo at 30 mg/kg in [2] is 66%. Also, the TGIR in assay [4] stood at 48%.
`COc1cc2c(Oc3ccc(NC(=O)NC(=O)Cc4ccccc4)cc3F)ccnc2cc1OCCCN1CCOCC1` [Example 11, 1-{3-fluoro-4-[6-methoxy-7-(3-morpholin-4-yl-propoxy)quinolin-4-yloxy]phenyl}-3-phenylacetylurea]: the figures for the IC50 in [5] and in [1] were 58.1 nM and 20.2 nM, respectively. Also, the “TGIR (tumor growth inhibition rate)” value in assay [6] (dose 10 mg/kg/time) came to 23%; in [6] (dose 30 mg/kg/time) it was 52%. Also, in [2], the inhibition in vivo at 30 mg/kg came out at 63%. In addition, the values for the TGIR in assay [3] and in assay [4] were 62% and 26%, respectively.
`COc1cc2c(Oc3ccc(NC(=S)NC(=O)Cc4ccccc4)cc3F)ccnc2cc1OCCCN1CCOCC1` [Example 268, N-{3-fluoro-4-[6-methoxy-7-(3-morpholin-4-yl-propoxy)quinolin-4-yloxy]phenyl}-N′-phenylacetyl-thiourea] came in with an IC50 in assay [1] of 22.8 nM. Also, the “TGIR (tumor growth inhibition rate)” value in assay [6] (dose 30 mg/kg/time) came out at 81%. Moreover, the TGIR in assay [3] was 74%; in assay [4] it was 35%.
For `COc1cc2nccc(Oc3ccc(NC(=O)NC(=O)Cc4ccc(F)cc4)c(F)c3)c2cc1OC` [Example 3, N-[4-(6,7-dimethoxyquinolin-4-yloxy)-2-fluoro-phenyl]-N′-[2-(4-fluorophenyl)acetyl]urea], the IC50 stood at 19.7 nM in assay [5] and 30.4 nM in assay [1]. The “TGIR (tumor growth inhibition rate)” value is 24% in assay [6] (dose 10 mg/kg/time) and 52% in [6] (dose 30 mg/kg/time). Besides, the TGIR in [7] (30 mg/kg/time) stood at 51%; in [7] (100 mg/kg/time), 60%; in assay [8], 31%; in assay [9], 71%; in assay [4], 18%.
As to `COc1cc2c(Oc3ccc(NC(=S)NC(=O)Cc4cccc(F)c4)cc3Cl)ccnc2cc1OCCCN1CCOCC1` [Example 299, 1-{3-Chloro-4-[6-methoxy-7-(3-morpholin-yl-propoxy)-quinolin-4-yloxy]-phenyl}-3-[2-(3-fluoro-phenyl)-acetyl]-thiourea], the IC50 in assay [1] was 43.5 nM. Besides, the inhibition in vivo at 25 mg/kg in assay [2] was 14%.
Take `COc1cc2c(Oc3ccc(NC(=S)NC(=O)Cc4ccccc4)cc3F)ccnc2cc1OCC(O)CN1CCCC1` (stereo not shown) [Example 332, 1-{3-Fluoro-4-[7-(2-hydroxy-3-pyrrolidin-1-yl-propoxy)-6-methoxy-quinolin-4-yloxy]-phenyl}-3-(2-phenyl-acetyl)-thiourea]: in assay [1], the IC50 turned out to be 14.2 nM. Besides, in assay [2], the inhibition in vivo at 30 mg/kg stood at 14%.
For `COc1cc2c(Oc3ccc(NC(=S)NC(=O)Cc4ccc(F)cc4)cc3F)ccnc2cc1OCCN1CCC(CO)CC1` [Example 282, 1-(3-Fluoro-4-{7-[2-(4-hydroxymethyl-piperidin-1-yl)ethoxy]-6-methoxy-quinolin-4-yloxy}-phenyl)-3-[2-(4-fluoro-phenyl)-acetyl]-thiourea], in that order: 16.6 nM and 13%.
For `COc1cc2c(Oc3ccc(NC(=S)NC(=O)Cc4ccc(F)cc4)cc3F)ccnc2cc1OCCN1CCOCC1` [Example 277, 1-{3-Fluoro-4-[6-methoxy-7-(2-morpholin-4-yl-ethoxy)-quinolin-4-yloxy]-phenyl}-3-[2-(4-fluorophenyl)-acetyl]-thiourea], in that order: 20.4 nM and 17%.
`COc1cc2c(Oc3ccc(NC(=S)NC(=O)Cc4ccccc4)cc3F)ccnc2cc1OCC(O)CN1CCOCC1` (stereo not shown) [Example 312, 1-{3-Fluoro-4-[7-(2-hydroxy-3-morpholin-4-yl-propoxy)-6-methoxy-quinolin-4-yloxy]-phenyl}-3-phenylacetyl-thiourea] gave an IC50 in assay [1] of 19.1 nM. Besides, the inhibition in vivo at 30 mg/kg in assay [2] is 75%.
In assay [1], `COc1cc2c(Oc3ccc(NC(=S)NC(=O)Cc4ccccc4C)cc3F)ccnc2cc1OCC(O)CN1CCOCC1` (stereo not shown) [Example 333] gave an IC50 of 21.1 nM. The inhibition in vivo at 30 mg/kg in [2] turned out to be 75%.
Taken in the same sequence, the figures for `COc1cc2c(Oc3ccc(NC(=S)NC(=O)Cc4ccc(Cl)cc4)cc3F)ccnc2cc1OCC(O)CN1CCOCC1` (stereo not shown) [Example 326, 1-[2-(4-Chloro-phenyl)-acetyl]-3-{3-fluoro-4-[7-(2-hydroxy-3-morpholin-4-yl-propoxy)-6-methoxy-quinolin-4-yloxy]-phenyl}-thiourea] were 13.1 nM and 17%.
Taken in the same sequence, the figures for `COc1cc2c(Oc3ccc(NC(=S)NC(=O)Cc4ccccc4Cl)cc3F)ccnc2cc1OCC(O)CN1CCOCC1` (stereo not shown) [Example 314, 1-[2-(2-Chloro-phenyl)-acetyl]-3-{3-fluoro-4-[7-(2-hydroxy-3-morpholin-4-yl-propoxy)-6-methoxy-quinolin-4-yloxy]-phenyl}-thiourea] were 23.2 nM and 38%.
